Measured values from patent publication US10865216B2, “Tricyclic Gyrase inhibitors” (MERCK SHARP & DOHME CORP., priority 2012, dated 2020).
Converted amounts (≈) assume the structure as drawn.

Key:
E. coli ATCC 25922 = assay: MIC, E. coli ATCC 25922; assay type: cell-based; settings: for MIC: Escherichia coli, ATCC25922, E. coli, read-out: MIC Ec
S. aureus ATCC 13709 = assay: MIC, S. aureus ATCC 13709; assay type: cell-based; settings: for MIC: Staphylococcus aureus, ATCC13709, S. aureus, read-out: MIC Sa
[1] = E. coli, Alamar Blue read after overnight incubation at 35° C.
[2] = S. aureus, Alamar Blue read after overnight incubation at 35° C.
[3] = Alamar Blue read after overnight incubation at 35° C.

Compound | MIC Ec (E. coli ATCC 25922; [1]) [µg/mL] | MIC Sa (S. aureus ATCC 13709; [2]) [µg/mL] | MIC (E. coli ATCC 25922; [3]) [µg/mL] | MIC (S. aureus ATCC 13709; [3]) [µg/mL] | further results
Nc1cccc2c1[nH]c1nc(Oc3cnc4cccnc4c3)nc(N3CC4C(N)C4C3)c12 (centres unmarked) [Compound 2.8] | >64 | 16 (≈ 37.7 µM) | – | – | –
CNc1cc(F)cc2c1[nH]c1nc(Oc3cnc4[nH]cnc4c3)nc(N3CC4CCNC4C3)c12 (centres unmarked) [Compound 4.312] | >16 | 16 (≈ 34.8 µM) | – | – | –
CNc1cccc2c1[nH]c1nc(Oc3cncnc3)cc(N3C[C@@H]4CNC[C@H]4C3)c12 [Compound 3.61] | – | – | 16 (≈ 39.9 µM) | 4 (≈ 9.96 µM) | –
CNc1cc(F)cc2c1[nH]c1nc(Oc3cnc(C)nc3)nc(N3CC4CCC(CN)C4C3)c12 (centres unmarked) [Compound 4.112] | 1 (≈ 2.16 µM) | ≤0.5 | – | – | –
CNc1cc(F)cc2c1[nH]c1nc(Oc3cnc(N4CCOCC4)nc3)nc(N3CC[C@@H](N)C3)c12 [Compound 4.212] | ≤0.5 | ≤0.5 | – | – | –
CNc1cc(F)cc2c1[nH]c1nc(Oc3cnc(CC(=O)N4CC[C@H](N)C4)nc3)nc(N3C[C@H](N)C4(CC4)C3)c12 [Compound 4.372] | 16 (≈ 29.3 µM) | 4 (≈ 7.32 µM) | – | – | –
CNc1cccc2c1[nH]c1nc(Sc3cnc4cccnc4c3)nc(N3CCN(c4cnccn4)CC3)c12 [Compound 1.54] | – | – | > 64 | ≤ 0.5 | –
COc1cccc2c1[nH]c1nc(Oc3cncnc3)nc(N3CC[C@@H](N)C3)c12 [Compound 2.10] | 32 (≈ 84.8 µM) | 2 (≈ 5.3 µM) | – | – | –
CNc1cc(F)cc2c1[nH]c1nc(Oc3cnc(C(N)=O)nc3)nc(N3C[C@H](N)C4(CC4)C3)c12 [Compound 4.375] | 4 (≈ 8.63 µM) | ≤0.5 | – | – | –
CNc1cc(F)cc2c1[nH]c1nc(Oc3cnc(CCO)nc3)nc(N3CC4CC3C[C@@H]4N)c12 (some centres unmarked) [Compound 4.428] | – | – | 2 (≈ 4.31 µM) | ≤ 0.5 | –
CNc1cccc2c1[nH]c1nc(Oc3cncnc3)cc(N3C/C(=N\OC)[C@@H](N)C3)c12 [Compound 3.62] | – | – | 8 (≈ 19.1 µM) | ≤ 0.5 | –
CNc1cccc2c1[nH]c1nc(Oc3cncnc3)cc(N3CCN(CCN4CCOCC4)CC3)c12 [Compound 3.60] | – | – | > 64 | 8 (≈ 16.4 µM) | –
CNc1cc(F)cc2c1[nH]c1nc(Oc3cnc(C(C)O)nc3)nc(N3C[C@@H]4[C@H](N)C(F)[C@@H]4C3)c12 (some centres unmarked) [Compound 10.63] | – | – | – | – | MIC Ec (E. coli ATCC 25922; Table 18, Ec): ≤ 0.5 µg/mL; MIC Sa (S. aureus ATCC 13709; Table 18, Sa): ≤ 0.5 µg/mL
CNc1cc(F)cc2c1[nH]c1nc(Oc3cnc(C(C)C)nc3)nc(N3CCC4(CC4N)C3)c12 (centres unmarked) [Compound 4.235] | ≤0.5 | ≤0.5 | – | – | –
CNc1cc(F)cc2c1[nH]c1nc(Oc3ccc4sc(N)nc4c3)nc(N3CC4CCC(N)C4C3)c12 (centres unmarked) [Compound 4.335] | 4 (≈ 7.93 µM) | ≤0.5 | – | – | –
CCNc1cccc2c1[nH]c1nc(Sc3cnc4ccc[n+]([O-])c4c3)nc(N3CC4C(N)C4C3)c12 (centres unmarked) [Compound 1.10] | – | – | 4 (≈ 8.25 µM) | ≤ 0.5 | –
CNc1cc(F)cc2c1[nH]c1nc(Oc3cnc(C)nc3)nc(N3CC(N)C(C(=O)N4CCOCC4)C3)c12 (centres unmarked) [Compound 4.438] | – | – | 16 (≈ 30.7 µM) | 1 (≈ 1.92 µM) | –
CNc1cc(F)cc2c1[nH]c1nc(Oc3cnc4ccoc4c3)nc(N3CC4CCC(N)C4C3)c12 (centres unmarked) [Compound 4.293] | 1 (≈ 2.11 µM) | ≤0.5 | – | – | –
CNc1cc(F)c(Cl)c2c1[nH]c1nc(Oc3cnc4ccnn4c3)nc(N3CC4(CC[C@]4(C)N)C3)c12 [Compound 10.90] | – | – | – | – | MIC Ec (E. coli ATCC 25922; Table 18, Ec): ≤ 0.5 µg/mL; MIC Sa (S. aureus ATCC 13709; Table 18, Sa): ≤ 0.5 µg/mL
CNc1cc(F)c(Br)c2c1[nH]c1nc(Oc3cnc(C)nc3)nc(N3C[C@H]4C[C@@H]3C[C@H]4N)c12 [Compound 10.68] | – | – | – | – | MIC Ec (E. coli ATCC 25922; Table 18, Ec): ≤ 0.5 µg/mL; MIC Sa (S. aureus ATCC 13709; Table 18, Sa): ≤ 0.5 µg/mL
CNc1cc(F)cc2c1[nH]c1nc(Oc3cnc(C)nc3)nc(-c3cccnc3N)c12 [Compound 4.448] | – | – | 1 (≈ 2.4 µM) | ≤ 0.5 | –
CNc1cccc2c1[nH]c1nc(Sc3cnc4cccnc4c3)nc(N3CC4C(N)C4C3)c12 (centres unmarked) [Compound 1.24] | 1 (≈ 2.2 µM) | ≤0.5 | – | – | –
CNc1cc(F)cc2c1[nH]c1nc(Nc3cnn4ccnc4c3)nc(N3C[C@H]4C[C@@H]3C[C@H]4N)c12 [Compound 10.46] | – | – | – | – | MIC Ec (E. coli ATCC 25922; Table 18, Ec): ≤ 0.5 µg/mL; MIC Sa (S. aureus ATCC 13709; Table 18, Sa): ≤ 0.5 µg/mL
CNc1cc(F)cc2c1[nH]c1nc(Oc3cnc(C)nc3)nc(N3CC4CC(N)CC4C3)c12 (centres unmarked) [Compound 4.104] | ≤0.5 | ≤0.5 | – | – | –
CNc1cc(F)cc2c1[nH]c1nc(Oc3cnc(SC)nc3)nc(N3CCC4(C[C@H]4N)C3)c12 (some centres unmarked) [Compound 4.203] | ≤0.5 | ≤0.5 | – | – | –
CCc1ncc(Oc2nc(N3CC(N)C4(CC4)C3)c3c(n2)[nH]c2c(NC)cc(F)cc23)cn1 (centres unmarked) [Compound 4.259] | ≤0.5 | ≤0.5 | – | – | –
CNc1cc(F)cc2c1[nH]c1nc(Oc3cnc(-c4nccn4C)nc3)nc(N3C[C@H](N)C4(CC4)C3)c12 [Compound 4.399] | 2 (≈ 4 µM) | ≤0.5 | – | – | –
CNc1cccc2c1[nH]c1nc(Sc3cnc4cccnc4c3)nc(N3C[C@@H](N)C[C@H]3C)c12 [Compound 1.60] | – | – | 2 (≈ 4.38 µM) | 0.5 (≈ 1.1 µM) | –
